Columns and labels:
IFNα and IFNβ = experiment: Expression of IFNα and IFNβ by Q-PCR in THP-1 cells treated with mitophagosome formation inhibitor Mdivi; assay type: cell-based, human; settings: control THP-1 cells treated with Mdivi, with or without SeV or LPS; similar to MCM8 knockdown
[1] = test system: mitochondrial DNA in cytoplasm; experiment: Cytoplasmic DNA source by Q-PCR after nuclear-cytoplasmic separation in THP-1 cells; assay type: cell-based, human; settings: control THP-1 cells treated with Mdivi, with or without SeV or LPS; similar to MCM8 knockdown
Source text: Therefore, in order to explore whether DNA is produced in cytoplasm and the source, the inventors further knocked down MCM8 in THP-1 cells by transfection with MCM8-specific siRNA and stimulated the cells with SeV or poly(dA:dT). The stimulated cells were subjected to nuclear-cytoplasmic separation (Beyotime nuclear protein and cytoplasmic protein extraction kit was used for the nuclear-cytoplasmic separation herein, and the operation followed the instructions, the same below), and the cytoplasmic DNA was extracted for detecting the source of cytoplasmic DNA by qPCR.
Furthermore, the MCM8-knockdown THP-1 cells were stimulated or not stimulated with SeV and LPS, respectively, and treated with or without the mitophagosome formation inhibitor Mdivi, and the cytoplasmic DNA was extracted, and the content of mitochondrial DNA in cytoplasm and the expressions of IFNα and IFNβ were detected by Q-PCR.

For `COc1cc(-n2c(=S)[nH]c3ccccc3c2=O)c(Cl)cc1Cl` [Mdivi], the “expression levels of IFNα and IFNβ” value (IFNα and IFNβ) was “increase in the expression levels of IFNα and IFNβ” and the “mtDNA aggregation in cytoplasm (Q-PCR)” value [1] was “mtDNA aggregation”.

Reference: patent US20240067683A1, “USE OF MCM8-CGAS-STING-IFN-I SIGNAL PATHWAY AS DISEASE TARGET” (Guangzhou Women and Children's Medical Center, priority 2020, published 2024)
